# In ChEMBL document CHEMBL3792274, “Neuroprotective oleanane triterpenes from the roots of Bupleurum chinense” (Bioorg Med Chem Lett, 2016):
# Legend:
# HepG2 = assay: Cytotoxicity against human HepG2 cells after 48 hrs by MTT assay; assay type: cell-based; details: HepG2, 48 h
# SH-SY5Y [1] = assay: Neuroprotective activity against H2O2-induced neuronal cell death in human SH-SY5Y cells assessed as cell viability at 100 uM pretreated for 12 hrs followed by H2O2 addition measured after 3 hrs by MTT assay relative to control; assay type: functional; details: read-out: Activity
# A549 = assay: Cytotoxicity against human A549 cells after 48 hrs by MTT assay; assay type: cell-based; details: A549, 48 h
# MCF7 = assay: Cytotoxicity against human MCF7 cells after 48 hrs by MTT assay; assay type: cell-based; details: MCF7, 48 h
# [2] = Cytotoxicity against human Hep3B cells after 48 hrs by MTT assay; assay type: cell-based, Hep 3B2
# Bcap37 = assay: Cytotoxicity against human Bcap37 cells after 48 hrs by MTT assay; assay type: cell-based; details: Bcap37, 48 h
# SH-SY5Y [3] = assay: Neuroprotective activity against H2O2-induced neuronal cell death in human SH-SY5Y cells assessed as cell viability at 50 uM pretreated for 12 hrs followed by H2O2 addition measured after 3 hrs by MTT assay relative to control; assay type: functional; details: read-out: Activity
# SH-SY5Y [4] = assay: Neuroprotective activity against H2O2-induced neuronal cell death in human SH-SY5Y cells assessed as cell viability at 25 uM pretreated for 12 hrs followed by H2O2 addition measured after 3 hrs by MTT assay relative to control; assay type: functional; details: read-out: Activity
Structure (SMILES),IC50 (HepG2) [µM],viability at 100 µM (SH-SY5Y [1]) [%],IC50 (A549) [µM],IC50 (MCF7) [µM],IC50 [2] [µM],IC50 (Bcap37) [µM],viability at 50 µM (SH-SY5Y [3]) [%],viability at 25 µM (SH-SY5Y [4]) [%]
CO[C@@H]1C=C2[C@@H]3CC(C)(C)CC[C@]3(CO)[C@@H](O)C[C@@]2(C)[C@]2(C)CC[C@H]3C(C)(C)[C@@H](O[C@@H]4O[C@H](C)[C@H](O)[C@H](O[C@@H]5O[C@H](CO)[C@@H](O)[C@H](O)[C@H]5O)[C@H]4O)CC[C@]3(C)[C@@H]12,43.2,6.02,> 80,> 80,> 80,> 80,7.15,64.9
CO[C@H]1C=C2[C@H]3CC(C)(C)CC[C@@]3(CO)[C@H](O)C[C@]2(C)[C@@]2(C)CC[C@@H]3C(C)(C)[C@H](O[C@@H]4O[C@H](CO[C@H]5O[C@@H](CO)[C@H](O)[C@@H](O)[C@@H]5O)[C@@H](O[C@@H]5O[C@@H](C)[C@H](O)[C@@H](O)[C@H]5O)[C@H](O)[C@H]4O)CC[C@@]3(C)[C@H]12,> 80,20.2,> 80,> 80,75.7,> 80,50,58.4
C[C@H]1O[C@@H](O[C@H]2CC[C@@]3(C)[C@@H](CC[C@]4(C)[C@@H]3[C@H](O)C=C3[C@@H]5CC(C)(C)CC[C@]5(CO)[C@@H](O)C[C@]34C)[C@]2(C)CO)[C@H](O)[C@@H](O[C@@H]2O[C@H](CO)[C@@H](O)[C@H](O)[C@H]2O)[C@H]1O,> 80,55.6,> 80,> 80,> 80,> 80,54.4,57.5
CO[C@@H]1C=C2[C@@H]3CC(C)(C)C[C@H](O)[C@]3(CO)[C@@H](O)C[C@@]2(C)[C@]2(C)CC[C@@H]3[C@](C)(CCC(=O)[C@@]3(C)CO)[C@@H]12,65.9,67.2,> 80,> 80,> 80,> 80,70.2,75.6
CC1(C)CC[C@@]2(CO)C(=C3C=C[C@@H]4[C@@]5(C)CCC(=O)[C@@](C)(CO)[C@@H]5CC[C@@]4(C)[C@]3(C)C[C@H]2O)C1,> 80,75.1,> 80,> 80,> 80,> 80,74.1,77.2
C[C@H]1O[C@@H](O[C@H]2CC[C@@]3(C)[C@@H](CC[C@]4(C)[C@@H]3C=CC3=C5CC(C)(C)CC[C@]5(CO)[C@H](O)C[C@]34C)[C@]2(C)CO)[C@H](O)[C@@H](O[C@@H]2O[C@H](CO)[C@@H](O)[C@H](O)[C@H]2O)[C@H]1O,35.1,33.3,> 80,> 80,> 80,> 80,59.5,66.9
CO[C@@H]1C=C2[C@@H]3CC(C)(C)CC[C@]3(CO)[C@@H](O)C[C@@]2(C)[C@]2(C)CC[C@H]3[C@](C)(CO)[C@@H](O[C@@H]4O[C@H](C)[C@H](O)[C@H](O[C@@H]5O[C@H](CO)[C@@H](O)[C@H](O)[C@H]5O)[C@H]4O)CC[C@]3(C)[C@@H]12,27.5,6.16,> 80,64.3,> 80,> 80,8.25,63.1
CC(=O)O[C@H]1[C@H](O[C@H]2[C@@H](O)[C@@H](C)O[C@@H](O[C@H]3CC[C@@]4(C)[C@@H](CC[C@]5(C)[C@@H]4C=CC4=C6CC(C)(C)CC[C@]6(CO)[C@H](O)C[C@]45C)[C@]3(C)CO)[C@@H]2O)O[C@H](CO)[C@@H](O)[C@@H]1O,18.9,7.36,56,42.2,23,23.5,7.28,9.38
CC(=O)OC[C@H]1O[C@@H](O[C@H]2[C@@H](O)[C@@H](C)O[C@@H](O[C@H]3CC[C@@]4(C)[C@@H](CC[C@]5(C)[C@@H]4C=CC4=C6CC(C)(C)CC[C@]6(CO)[C@H](O)C[C@]45C)[C@]3(C)CO)[C@@H]2O)[C@H](O)[C@@H](O)[C@@H]1O,21.8,7.64,69.3,46.5,> 80,> 80,7.24,14.3
Cc1c(C)c2c(c(C)c1O)CCC(C)(C(=O)O)O2 (stereo not given) [TROLOX],–,75.2,–,–,–,–,73.7,67
